Source: US20240197927A1, “COMBINATION COMPRISING A NEUROTENSIN RECEPTOR BINDING COMPOUND, GEMCITABINE AND NAB-PACLITAXEL” (Fusion Pharmaceuticals Inc., priority 2021, published 2024)

Columns and labels:
[1] = test system: metastatic PDAC; details: patients with metastatic PDAC; p<0.001; cited from earlier work
[2] = test system: metastatic PDAC; details: patients with metastatic PDAC, first-line; p<0.001; cited from earlier work
[3] = Toxicity: weight loss of treated mice; format: in vivo; details: AsPC-1 study mice; combination Groups 2E, 5E, 6E; Gemcitabine/Abraxane Group 3E; ^177Lu-IPN01087 Groups 4E, 7E
Procedure: ^177Lu-IPN01087 and the reference substances were administered by intravenous injection (IV) into the caudal vein via a catheter. The recommended pH formulation for IV administration is pH 4.5-8.0. […]

[4] = test system: subcutaneous AsPC1 tumors; assay: Efficacy study on mice bearing subcutaneous AsPC-1 tumors (tumor volume); format: in vivo
Procedure: The AsPC 1 cell line was isolated from a metastatic site (ascites) from a patient (Chen W H. et al., In Vitro. 1982 Jan; 18(1):24-34).
(§1) Tumor cells were grown as monolayer at 37° C. in a humidified atmosphere (5% CO2, 95% air). The culture medium was RPMI 1640 containing 2 mM L-glutamine supplemented with 10% fetal bovine serum. For experimental use, tumor cells were detached from the culture flask using accutase and neutralized by the addition of complete culture medium. The cells were counted, and viability exceeded 85% as assessed by 0.25% trypan blue exclusion assay. Two frozen pellets of HT29 tumor cells were prepared: one frozen cell pellet prepared during the in-vitro cell culture, and one frozen cell pellet prepared using the cell suspension used for tumor induction in mice
Healthy female Swiss Nude mice (Crl:NU(Ico)-Foxn1^nu), 6 weeks old at reception, were obtained from Charles River.
(§2) Tumors were induced by subcutaneous injection of 1×10^7 AsPC 1 cells in 200 μL of RPMI 1640 medium containing matrigel (50:50, v:v, ref: 356237, BD Biosciences, France) into the right flank (in the axis of the heart) of 150 animals. AsPC 1 tumor cell implantation was performed 72 hours after whole-body irradiation with a gamma source (2 Gy (Nude mice), 60Co, BioMep, France).
Animals were randomized by individual tumor volume when tumors reach a mean volume of 150-200 mm3. […]

[5] = test system: subcutaneous HT-29 tumors; assay: Efficacy study on mice bearing subcutaneous HT-29 tumors (tumor volume); format: in vivo
Procedure: The HT-29 cell line was established from the primary tumor of a patient with colon adenocarcinoma (Fogh J et al., J. Natl. Cancer Inst. 1977 Jul. 59(1): 221-26).
as §1, with “mice.” for “mice”
Healthy female Swiss Nude mice (Crl:NU(Ico)-Foxn1nu), 7 weeks old at reception, were obtained from Charles River.
as §2, with “HT29” for “AsPC 1”, “160” for “150”, “24” for “72”, “after a” for “after”, “France). The day of tumor induction was considered as the day −11 (D-11). […]” for “France).”

[6] = molecular target: neurotensin receptor 2 (NTR2) (Homo sapiens, UniProt O95665); details: unlike NTR1; cited from earlier work
[7] = in combination with gemcitabine and nab-paclitaxel chemotherapy regimen

Chain of neurotensin receptor 2 (NTR2) (O95665 whole entry, species assumed): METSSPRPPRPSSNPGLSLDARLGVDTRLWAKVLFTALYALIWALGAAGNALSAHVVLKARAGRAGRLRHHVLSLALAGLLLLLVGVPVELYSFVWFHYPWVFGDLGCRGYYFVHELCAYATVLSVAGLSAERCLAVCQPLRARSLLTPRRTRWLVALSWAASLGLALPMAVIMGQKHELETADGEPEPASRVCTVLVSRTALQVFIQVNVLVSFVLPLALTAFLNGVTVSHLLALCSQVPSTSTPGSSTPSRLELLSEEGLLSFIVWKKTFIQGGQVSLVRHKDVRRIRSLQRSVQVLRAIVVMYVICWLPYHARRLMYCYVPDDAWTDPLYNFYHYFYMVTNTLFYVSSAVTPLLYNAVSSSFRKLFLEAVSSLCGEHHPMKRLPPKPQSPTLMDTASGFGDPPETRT

FOLFIRINOX
ORR [1]: 31.6% | median OS [1]: 11.1 months | median PFS [1]: 6.4 months

Nc1ccn([C@@H]2O[C@H](CO)[C@@H](O)C2(F)F)c(=O)n1 [gemcitabine]
overall response rate (ORR) [2]: 7% | overall survival (OS) [2]: 6.7 months | progression-free survival (PFS) [2]: 3.7 months | ORR [1]: 9.4% | median OS [1]: 6.8 months | median PFS [1]: 3.3 months

^177Lu-zalsenertant tetraxetan [^177Lu-IPN01087]
mean weight losses [3]: −4% to −10% | overall effect in the AsPC-1 pancreatic cancer model compared to chemotherapy or radiotherapy regimens alone [4, 7]: prolonged regression | AsPC-1 tumor growth, effect compared to the vehicles ([4]; treatment alone, FIG. 7: Group 3E (GEM-ABX), Group 4E (^177Lu-IPN01087 @19MBq), IV): antitumor effect | overall effect in the HT-29 colon cancer model compared to chemotherapy or radiotherapy regimens alone [5, 7]: improved tumor growth control | HT-29 tumor growth, effect as compared to the vehicles ([5]; single treatments, FIG. 2: Group 3 (GEM-ABX), Group 4 (^177Lu-IPN01087 @17MBq), IV): inhibitory effect on tumor growth

C[C@@H]1CN([C@H]2CC[C@](C#N)(c3ccc(F)cc3)CC2)CC[C@]1(C(=O)O)c1ccccc1 [levocabastine]
affinity for NTR2 [6]: high affinity
